In US8420861B2, “Anti-tumor compounds derived from 1,4,5,8-tetrachloroanthraquinone” (priority 2007, dated 2013):
Counter-ions that a name gives are not always drawn.

Assays:
[1] = system: BOT-2 human breast cancer cells; test: Cytotoxicity by visual inspection / MTT assay, 100% cell kill at serial dilutions; assay type: cell-based; conditions: for Activity: Table of Side Chains, scale not given; for activity compared to mitoxantrone: cytotoxicity assay
Text: (§1) The MTT assay was used to determine levels of 100% and 50% cell kill. In addition to activity against cancer mitoxantrone has been used to treat certain forms of multiple sclerosis and is approved by the FDA to treat both cancer and multiple sclerosis. Mitoxantrone also has significant immune modulatory effects and could be used to treat severe forms of collagen vascular disorders.
Testing of compounds in the MTT assay. In a 72 well plate, the BOT-2 human breast cancer cells were allowed to grow for 24 hours. Following this growth time, dilutions of the drug was added. The cells were checked for percentage of cell death at 24 and 48 hours. This checking was done by visual appearance of the cells. Rounded up floating cells or disrupted cells indicating cell death. Cells flattened and attached to the bottom of the tissue culture flask indicated alive and healthy cells. At 144 hours MTT.
Visual inspection assay: BOT-2 cancer cells after treatment with an anthracycline or cytotoxic anthraquinone compounds. The dead cells become rounded, detach and float. The compound is initially dissolved in 0.1 N hydrochloric acid or dilute acetic acid. Serial 1 to 4 dilutions of the compound are made with buffered tissue culture media and pipetted into a wells of a 72 well microtiter plate. Determination is made of 100% cell death at 24, 48 and 144 hours for each well. Controls are always run concurrently. […] Previous work has determined if 100% kill is noted there is never re-growth of the tumor cells.
A solution of 1,4,5,8-Tetrakis-[2-(2-aminoethyl)amino]anthraquinone dihydrochloride (T-4) was made of 10 mg/ml in de-ionized water. This was then diluted to 1 mg/ml. This solution was filtered to sterilize. Seventy micro liters (70 μl) of this was mixed with tissue culture media and added to 70 well plate. Two hundred ten (210) cells per well were previously grown for 24 hrs prior to adding the test drug. The test compounds were added in serial 1 to 3 dilutions. 1,4,5,8-Tetrakis-[2-(2-aminoethyl)amino]anthraquinone (T-4) was tested against mitoxantrone, epirubicin, and bis-1,4-aminoethylamino-5,8-dihydroxyanthraquinone. There was also a control in which no drug was added. […] The end point for positive cell kill was 100% cell death.
A solution of 1,4,5,8-Tetrakis-N,N-dimethylaminoethylaminoanthraquinone dihydrochloride was made of 10 mg/ml in de-ionized water. This was then diluted to 1 mg/ml. This solution was filtered to sterilize. 70 μl of this was mixed with tissue culture media and added to 70 well plate. Two hundred ten (210) cells per well were previously grown for 24 hrs prior to adding the test drug. The test compounds were added in serial 1 to 3 dilutions. The 1,4,5,8-Tetrakis-N,N-dimethylaminoethylaminoanthraquinone was tested against mitoxantrone (bis-1,4-hydroxyethylaminoethylamino-5,8-dihydroxyanthraquinone dihydrochloride), epirubicin, and 1,4-bis-[(aminoethyl)amino]anthraquinone. There was also a control in which no drug was added. […] The end point for positive cell kill was 100% cell death.

[2] = system: BOT-2 breast cancer cell line; test: Doublet combinations with other chemotherapy drugs, cell kill; assay type: cell-based, human; conditions: other drugs included docetaxel, gemcitabine and topotecan
Text: as §1, with “The synthesized compounds tested were compared to mitoxantrone (Novantrone®) when tested in a tissue culture system using the BOT-2 breast cancer cell line. The” for “The”, “disorders. The compounds described in the present disclosure would be expected to have similar activities at a greater therapeutic efficacy.” for “disorders.”
These other drugs included docetaxel, gemcitabine and topotecan.

Compound	Activity [1]	activity compared to mitoxantrone [1]	other results
O=C1c2c(NCCNCCO)ccc(NCCNCCO)c2C(=O)c2c(NCCNCCO)ccc(NCCNCCO)c21 [Designation T-1]	5	more active than mitoxantrone	
CN(C)CCNc1ccc(NCCN(C)C)c2c1C(=O)c1c(NCCN(C)C)ccc(NCCN(C)C)c1C2=O [Designation T-2, 1,4,5,8-Tetrakis-[(2-N,N-dimethylaminoethyl)amino]anthraquinone]	5	more active than mitoxantrone	
O=C1c2c(NCCO)ccc(NCCO)c2C(=O)c2c(NCCO)ccc(NCCO)c21 [Designation T-3, 1,4,5,8-Tetrakis-[(2-hydroxyethyl)amino]anthraquinone]	1		activity in cytotoxicity assay ([1]; end point 100% cell death, 24, 48 and 144 hrs): inactive; 100% cell kill went out to (number of dilutions) ([1]; starting solution 1 mg/ml, end point 100% cell death, at 24, 48 and 144 hrs): 1 dilutions
NCCNc1ccc(NCCN)c2c1C(=O)c1c(NCCN)ccc(NCCN)c1C2=O [Designation T-4, 1,4,5,8-Tetrakis-[2-(2-aminoethyl)amino]anthraquinone]	5	more active than mitoxantrone	100% cell kill went out to (number of 1:4 dilutions) ([1]; starting solution 1 mg/ml, end point 100% cell death): 5 1:4 dilutions
CNCCN(C)c1ccc(NCCNCCO)c2c1C(=O)c1c(N(C)CCNC)ccc(N(C)CCNC)c1C2=O [T-2,2,2,1]	5		
CN(C)CCNc1ccc(NCCO)c2c1C(=O)c1c(NCCN(C)C)ccc(NCCN(C)C)c1C2=O [T-2,2,2,3]	5		
CN(C)c1ccc(NCCCl)c2c1C(=O)c1c(N(C)C)ccc(N(C)C)c1C2=O [T-2,2,2,8, 1,4,5-Tris-(N,N-dimethylamino),8-(2-chloroethylamino)anthraquinone]		more active than mitoxantrone	
O=C1c2c(O)ccc(O)c2C(=O)c2c(NCCNCCO)ccc(NCCNCCO)c21 [mitoxantrone, bis-1,4-hydroxyethylaminoethylamino-5,8-dihydroxyanthraquinone dihydrochloride, reference compound]			cell kill in doublet combination with other chemotherapy drugs [2]: extent of synergism was not seen
tetrakis-1,4,5,8-hydroxyalkylaminoethylaminoanthraquinone dihydrochloride			cell kill in doublet combination with other chemotherapy drugs [2]: synergistic cell kill (greater than additive)
